Source: the supplement of paper PMC10627819

Tests used:
S. aureus Newman [1] = test: fitness (endpoint OD595 vs no drug) (fraction); higher = more growth; conditions: one replicate
Summary of the method: (§1)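 Cultures at OD595 0.01 were dispensed into 384-well plates in TSB, LB Lennox or CY and incubated at 37 °C. Every 30 min for 14 h, OD595 was read and corrected by the first reading. Fitness is the optical density at entry into stationary phase relative to the robust mean of no-drug control wells, capped at 1.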

B. subtilis 168 [2] = test: as above
Summary of the method: as §1

S. aureus Newman [3] = test: Bliss interaction score (quartile over a dose matrix) (fitness difference); higher = more antagonism (negative = synergy)
Summary of the method: (§2)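 Fitness was derived from optical density at entry into stationary phase, divided by the robust mean of the no-drug wells on the same plate. That reading was taken as OD595, and the ratio was capped at 1. Single-drug fitness was inferred from the combination data. The Bliss score, observed fitness minus the expected product of single-drug fitness, was summarised as quartiles over technical, biological and donor/recipient replicates.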

S. pneumoniae D39V = test: as above
Summary of the method: as §2

B. subtilis 168 [4] = test: as above
Summary of the method: as §2

S. aureus DSM 20231 = test: as above
Summary of the method: as §2
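Wherever Bliss interaction score (quartile over a dose matrix) is given: first quartile when negative (synergy) and third quartile when positive (antagonism).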

CO/N=C(\C(=O)N[C@@H]1C(=O)N2C(C(=O)O)=C(COC(N)=O)CS[C@H]12)c1ccco1 [Cefuroxime] + CCN(CC)CCOC(=O)c1ccc(N)cc1 [Procaine]
fitness
Conditions	first compound 0.04875 µg/mL	first compound 0.0975 µg/mL	first compound 0.195 µg/mL
B. subtilis 168 [2], partner 85.5 µg/mL	0.756	0.685	0.527
B. subtilis 168 [2], partner 171 µg/mL	0.762	0.65	0.512
B. subtilis 168 [2], partner 342 µg/mL	0.75	–	0.519
S. aureus Newman [1], partner 85.5 µg/mL	0.953	0.92	0.904
S. aureus Newman [1], partner 171 µg/mL	0.962	0.904	0.905
S. aureus Newman [1], partner 342 µg/mL	0.947	0.907	0.902

fitness, B. subtilis 168 [2], one replicate
Conditions	first compound 1.562 µg/mL	first compound 3.125 µg/mL	first compound 6.25 µg/mL
partner 85.5 µg/mL	0.348	0.28	0.225
partner 171 µg/mL	0.288	0.256	0.153
partner 342 µg/mL	0.293	0.233	0.202

Conditions	Bliss interaction score
B. subtilis 168 [4]	0.0619
S. aureus DSM 20231	0.0947
S. aureus Newman [3]	-0.0324
S. pneumoniae D39V	-0.0452

CO/N=C(\C(=O)N[C@@H]1C(=O)N2C(C(=O)O)=C(COC(N)=O)CS[C@H]12)c1ccco1 [Cefuroxime] + CN1C2=CC=CC=C2N=C3C1=CC=CC3=O [Pyocyanin]
fitness
Conditions	first compound 0.04875 µg/mL	first compound 0.0975 µg/mL	first compound 0.195 µg/mL
B. subtilis 168 [2], partner 1.25 µg/mL	–	–	0.53
B. subtilis 168 [2], partner 2.5 µg/mL	0.719	–	0.513
B. subtilis 168 [2], partner 5 µg/mL	0.59	0.501	0.463
S. aureus Newman [1], partner 1.25 µg/mL	0.903	0.869	0.897
S. aureus Newman [1], partner 2.5 µg/mL	0.84	0.779	0.864
S. aureus Newman [1], partner 5 µg/mL	0.504	0.451	0.472

fitness, B. subtilis 168 [2], one replicate
Conditions	first compound 1.562 µg/mL	first compound 3.125 µg/mL	first compound 6.25 µg/mL
partner 1.25 µg/mL	0.331	0.306	0.24
partner 2.5 µg/mL	0.308	0.258	0.192
partner 5 µg/mL	0.253	0.215	0.184

Conditions	Bliss interaction score
B. subtilis 168 [4]	0.0646
S. aureus DSM 20231	-0.0629
S. aureus Newman [3]	-0.0853
S. pneumoniae D39V	-0.0309

CO/N=C(\C(=O)N[C@@H]1C(=O)N2C(C(=O)O)=C(COC(N)=O)CS[C@H]12)c1ccco1 [Cefuroxime] + CN(C)c1cc(NC(=O)CNC(C)(C)C)c(O)c2c1C[C@H]1C[C@H]3[C@H](N(C)C)C(O)=C(C(N)=O)C(=O)[C@@]3(O)C(O)=C1C2=O [Tigecycline]
fitness
Conditions	partner 0.039 µg/mL	partner 0.078 µg/mL	partner 0.156 µg/mL
B. subtilis 168 [2], first compound 0.0975 µg/mL	0.652	0.677	0.669
B. subtilis 168 [2], first compound 0.195 µg/mL	0.553	0.53	0.537
S. aureus Newman [1], first compound 0.04875 µg/mL	0.933	0.907	0.95
S. aureus Newman [1], first compound 0.0975 µg/mL	0.927	0.959	0.895
S. aureus Newman [1], first compound 0.195 µg/mL	0.879	0.843	0.863

fitness, B. subtilis 168 [2], one replicate
Conditions	first compound 0.195 µg/mL	first compound 0.39 µg/mL	first compound 0.78 µg/mL	first compound 1.562 µg/mL	first compound 3.125 µg/mL	first compound 6.25 µg/mL
partner 0.039 µg/mL	–	–	–	0.349	0.258	0.227
partner 0.078 µg/mL	–	–	–	0.284	0.219	0.17
partner 0.125 µg/mL	0.405	0.34	0.292	–	–	–
partner 0.156 µg/mL	–	–	–	0.283	0.235	0.153
partner 0.25 µg/mL	0.368	0.287	0.211	–	–	–
partner 0.5 µg/mL	0.398	0.299	0.259	–	–	–

Conditions	Bliss interaction score
B. subtilis 168 [4]	0.0459
S. aureus DSM 20231	0.0902
S. aureus Newman [3]	-0.0442
S. pneumoniae D39V	0.0499

CO/N=C(\C(=O)N[C@@H]1C(=O)N2C(C(=O)O)=C(COC(N)=O)CS[C@H]12)c1ccco1 [Cefuroxime] + CN(N=O)C(=O)N[C@@H](C=O)[C@@H](O)[C@H](O)[C@H](O)CO [Streptozotocin]
fitness
Conditions	first compound 0.04875 µg/mL	first compound 0.0975 µg/mL	first compound 0.195 µg/mL
B. subtilis 168 [2], partner 0.15 µg/mL	0.717	0.688	0.539
B. subtilis 168 [2], partner 0.3 µg/mL	–	–	0.54
B. subtilis 168 [2], partner 0.6 µg/mL	–	–	0.496
S. aureus Newman [1], partner 0.15 µg/mL	0.958	0.995	0.96
S. aureus Newman [1], partner 0.3 µg/mL	0.731	0.723	0.736
S. aureus Newman [1], partner 0.6 µg/mL	0.534	0.51	0.464

Conditions	Bliss interaction score
B. subtilis 168 [4]	-0.0649
S. aureus DSM 20231	0.0897
S. aureus Newman [3]	-0.194
S. pneumoniae D39V	-0.0368

CO/N=C(\C(=O)N[C@@H]1C(=O)N2C(C(=O)O)=C(COC(N)=O)CS[C@H]12)c1ccco1 [Cefuroxime] + CN[C@@H]1[C@H](O)[C@H](NC)[C@H]2O[C@@]3(O)C(=O)C[C@@H](C)O[C@H]3O[C@@H]2[C@H]1O [Spectinomycin]
fitness
Conditions	first compound 0.04875 µg/mL	first compound 0.0975 µg/mL	first compound 0.195 µg/mL
B. subtilis 168 [2], partner 2 µg/mL	0.717	0.667	0.55
B. subtilis 168 [2], partner 4 µg/mL	0.799	0.645	0.569
S. aureus Newman [1], partner 4 µg/mL	0.932	0.971	0.9
S. aureus Newman [1], partner 8 µg/mL	0.943	0.96	0.877
S. aureus Newman [1], partner 16 µg/mL	0.94	0.918	0.84

fitness, B. subtilis 168 [2], one replicate
Conditions	first compound 1.562 µg/mL	first compound 3.125 µg/mL	first compound 6.25 µg/mL
partner 2 µg/mL	0.3	0.171	0.134
partner 4 µg/mL	0.234	0.0263	0.0348
partner 8 µg/mL	0.0211	0	0.0048

Conditions	Bliss interaction score
B. subtilis 168 [4]	-0.0976
S. aureus DSM 20231	0.116
S. aureus Newman [3]	0.127
S. pneumoniae D39V	0.0427

CO/N=C(\C(=O)N[C@@H]1C(=O)N2C(C(=O)O)=C(COC(N)=O)CS[C@H]12)c1ccco1 [Cefuroxime] + CN[C@@H]1[C@H](O[C@H]2[C@H](O[C@H]3[C@H](O)[C@@H](O)[C@H](N=C(N)N)[C@@H](O)[C@@H]3N=C(N)N)O[C@@H](C)[C@]2(O)C=O)O[C@@H](CO)[C@H](O)[C@H]1O [Streptomycin]
fitness
Conditions	first compound 0.04875 µg/mL	first compound 0.0975 µg/mL	first compound 0.195 µg/mL	first compound 1.562 µg/mL	first compound 3.125 µg/mL	first compound 6.25 µg/mL
B. subtilis 168 [2], partner 2 µg/mL	0.722	0.664	0.6	0.132	0.088	0.0549
B. subtilis 168 [2], partner 4 µg/mL	–	–	0.164	0.0266	0.015	0.0149
B. subtilis 168 [2], partner 8 µg/mL	0.0543	0.0254	0.0361	0.032	0.0257	0.0148
S. aureus Newman [1], partner 2 µg/mL	0.826	0.746	0.814	–	–	–
S. aureus Newman [1], partner 4 µg/mL	0.944	≥ 1	0.781	–	–	–
S. aureus Newman [1], partner 8 µg/mL	0.994	0.963	0.81	–	–	–

Conditions	Bliss interaction score
B. subtilis 168 [4]	-0.123
S. aureus DSM 20231	-0.357
S. aureus Newman [3]	0.335
S. pneumoniae D39V	0.0384
